Laboratory results as given in ChEMBL document CHEMBL5058643, “Data for DCP probe BI-2081” (2022).

Key:
Conditions in all cases: Compound concentration 10.0 uM
[1] = target: Histamine H1 receptor (Homo sapiens) (UniProt P35367)
[2] = target: 5-hydroxytryptamine receptor 2A (Homo sapiens) (UniProt P28223)
[3] = target: Sigma non-opioid intracellular receptor 1 (Homo sapiens) (UniProt Q99720)
[4] = target: Cholecystokinin receptor type A (Homo sapiens) (UniProt P32238); test: CCKA/H Eurofins SafetyScreen44 (BI)
[5] = target: Sodium-dependent dopamine transporter (Homo sapiens) (UniProt Q01959)
[6] = target: Muscarinic acetylcholine receptor M5 (Homo sapiens) (UniProt P08912)
[7] = target: D(3) dopamine receptor (Homo sapiens) (UniProt P35462)
[8] = target: Sigma intracellular receptor 2 (Homo sapiens) (UniProt Q5BJF2)
[9] = target: Beta-3 adrenergic receptor (Homo sapiens) (UniProt P13945)
[10] = target: GABA-A receptor; anion channel (Rattus norvegicus) (UniProt O09028+P15431+P18506+P18508+P19969+P20236+P23574+P23576+P28471+P28473+P30191+P62813+P63079+P63138+Q91ZM7+Q9ES14)
[11] = target: D(1B) dopamine receptor (Homo sapiens) (UniProt P21918)
[12] = target: 5-hydroxytryptamine receptor 7 (Homo sapiens) (UniProt P34969)
[13] = target: T1, 5-hydroxytryptamine receptor 1A (Homo sapiens) (UniProt P08908)
T1 sequence (whole entry): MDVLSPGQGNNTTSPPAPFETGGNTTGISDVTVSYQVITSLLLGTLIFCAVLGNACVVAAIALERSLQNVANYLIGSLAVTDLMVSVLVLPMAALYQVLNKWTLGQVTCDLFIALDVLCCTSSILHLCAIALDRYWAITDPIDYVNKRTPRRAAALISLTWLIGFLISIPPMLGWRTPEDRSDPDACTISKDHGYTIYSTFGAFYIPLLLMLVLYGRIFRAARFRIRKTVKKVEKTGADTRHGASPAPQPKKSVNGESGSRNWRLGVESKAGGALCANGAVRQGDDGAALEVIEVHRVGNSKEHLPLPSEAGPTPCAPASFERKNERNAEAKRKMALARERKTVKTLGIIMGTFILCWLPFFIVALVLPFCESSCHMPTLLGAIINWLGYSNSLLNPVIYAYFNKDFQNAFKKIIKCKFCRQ

[14] = target: T2, Muscarinic acetylcholine receptor M1 (Homo sapiens) (UniProt P11229)
T2 sequence (whole entry): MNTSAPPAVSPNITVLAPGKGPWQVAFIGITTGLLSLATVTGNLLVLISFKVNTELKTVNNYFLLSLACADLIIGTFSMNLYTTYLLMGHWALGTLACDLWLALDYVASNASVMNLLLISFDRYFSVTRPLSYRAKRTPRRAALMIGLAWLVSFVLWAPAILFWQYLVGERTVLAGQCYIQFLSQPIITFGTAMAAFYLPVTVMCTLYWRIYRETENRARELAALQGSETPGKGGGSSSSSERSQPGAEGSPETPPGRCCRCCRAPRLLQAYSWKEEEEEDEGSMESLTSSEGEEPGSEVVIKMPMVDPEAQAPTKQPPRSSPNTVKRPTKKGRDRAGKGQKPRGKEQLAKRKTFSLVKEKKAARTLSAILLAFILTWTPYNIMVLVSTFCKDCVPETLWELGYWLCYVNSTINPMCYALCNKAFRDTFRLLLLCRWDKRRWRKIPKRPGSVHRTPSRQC

[15] = target: T3, Alpha-1B adrenergic receptor (Homo sapiens) (UniProt P35368)
T3 sequence (whole entry): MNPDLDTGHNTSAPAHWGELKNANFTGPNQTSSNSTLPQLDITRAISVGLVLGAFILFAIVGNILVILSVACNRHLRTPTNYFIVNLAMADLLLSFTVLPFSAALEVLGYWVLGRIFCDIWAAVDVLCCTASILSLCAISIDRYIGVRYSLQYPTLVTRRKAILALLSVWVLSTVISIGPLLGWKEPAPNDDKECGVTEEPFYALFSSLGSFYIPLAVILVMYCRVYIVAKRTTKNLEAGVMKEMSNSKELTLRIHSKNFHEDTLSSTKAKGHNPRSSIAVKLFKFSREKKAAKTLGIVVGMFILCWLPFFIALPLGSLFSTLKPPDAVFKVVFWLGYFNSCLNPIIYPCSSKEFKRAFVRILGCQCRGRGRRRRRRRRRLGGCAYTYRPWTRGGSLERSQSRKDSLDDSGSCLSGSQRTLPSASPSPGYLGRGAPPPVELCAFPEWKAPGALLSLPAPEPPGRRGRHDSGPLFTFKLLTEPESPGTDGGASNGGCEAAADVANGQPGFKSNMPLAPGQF

[16] = target: 5-hydroxytryptamine receptor 1D (Homo sapiens) (UniProt P28221)
[17] = target: Kappa-type opioid receptor (Homo sapiens) (UniProt P41145)
[18] = target: D(1A) dopamine receptor (Homo sapiens) (UniProt P21728)
[19] = target: Sodium-dependent noradrenaline transporter (Homo sapiens) (UniProt P23975)
Sequence of Sodium-dependent noradrenaline transporter (Homo sapiens) (P23975 whole entry): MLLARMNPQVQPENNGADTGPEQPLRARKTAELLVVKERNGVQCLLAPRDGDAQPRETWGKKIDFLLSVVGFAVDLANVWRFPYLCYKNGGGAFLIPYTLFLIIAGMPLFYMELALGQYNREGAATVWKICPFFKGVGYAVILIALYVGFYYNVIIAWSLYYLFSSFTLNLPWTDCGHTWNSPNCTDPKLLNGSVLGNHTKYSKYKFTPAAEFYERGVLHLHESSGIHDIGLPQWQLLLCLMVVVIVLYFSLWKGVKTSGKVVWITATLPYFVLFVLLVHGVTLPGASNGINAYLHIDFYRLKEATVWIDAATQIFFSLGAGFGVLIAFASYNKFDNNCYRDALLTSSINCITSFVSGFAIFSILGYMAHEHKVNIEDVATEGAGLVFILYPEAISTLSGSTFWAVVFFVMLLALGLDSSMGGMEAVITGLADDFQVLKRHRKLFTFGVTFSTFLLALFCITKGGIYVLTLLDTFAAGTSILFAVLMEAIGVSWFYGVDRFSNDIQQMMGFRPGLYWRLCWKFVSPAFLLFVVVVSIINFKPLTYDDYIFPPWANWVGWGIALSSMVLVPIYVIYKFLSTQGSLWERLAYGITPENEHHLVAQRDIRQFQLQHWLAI

Sequence of D(3) dopamine receptor (Homo sapiens) (P35462 whole entry): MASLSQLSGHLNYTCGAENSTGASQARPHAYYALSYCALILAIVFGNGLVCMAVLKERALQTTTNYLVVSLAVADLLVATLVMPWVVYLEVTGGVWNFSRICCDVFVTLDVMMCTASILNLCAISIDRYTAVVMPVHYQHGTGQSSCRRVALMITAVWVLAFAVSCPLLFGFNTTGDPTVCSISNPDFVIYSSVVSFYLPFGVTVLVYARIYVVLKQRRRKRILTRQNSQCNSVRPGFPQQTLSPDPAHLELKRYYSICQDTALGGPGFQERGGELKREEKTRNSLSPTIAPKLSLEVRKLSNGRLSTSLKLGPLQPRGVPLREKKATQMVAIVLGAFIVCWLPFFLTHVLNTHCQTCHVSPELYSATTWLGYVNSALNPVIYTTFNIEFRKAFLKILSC
Sequence of Sigma non-opioid intracellular receptor 1 (Homo sapiens) (Q99720 whole entry): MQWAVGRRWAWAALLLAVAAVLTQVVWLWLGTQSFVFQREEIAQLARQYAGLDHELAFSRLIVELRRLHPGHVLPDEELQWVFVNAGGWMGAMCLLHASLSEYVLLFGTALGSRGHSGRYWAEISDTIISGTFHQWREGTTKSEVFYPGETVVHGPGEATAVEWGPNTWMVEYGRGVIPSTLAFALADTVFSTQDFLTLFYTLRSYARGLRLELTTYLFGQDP
Sequence of Sigma intracellular receptor 2 (Homo sapiens) (Q5BJF2 whole entry): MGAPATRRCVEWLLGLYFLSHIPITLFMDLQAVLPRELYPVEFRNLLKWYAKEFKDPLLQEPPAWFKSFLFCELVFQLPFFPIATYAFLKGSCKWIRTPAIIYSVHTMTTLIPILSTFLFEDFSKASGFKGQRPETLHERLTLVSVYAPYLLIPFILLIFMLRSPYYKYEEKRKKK
Sequence of Histamine H1 receptor (Homo sapiens) (P35367 whole entry): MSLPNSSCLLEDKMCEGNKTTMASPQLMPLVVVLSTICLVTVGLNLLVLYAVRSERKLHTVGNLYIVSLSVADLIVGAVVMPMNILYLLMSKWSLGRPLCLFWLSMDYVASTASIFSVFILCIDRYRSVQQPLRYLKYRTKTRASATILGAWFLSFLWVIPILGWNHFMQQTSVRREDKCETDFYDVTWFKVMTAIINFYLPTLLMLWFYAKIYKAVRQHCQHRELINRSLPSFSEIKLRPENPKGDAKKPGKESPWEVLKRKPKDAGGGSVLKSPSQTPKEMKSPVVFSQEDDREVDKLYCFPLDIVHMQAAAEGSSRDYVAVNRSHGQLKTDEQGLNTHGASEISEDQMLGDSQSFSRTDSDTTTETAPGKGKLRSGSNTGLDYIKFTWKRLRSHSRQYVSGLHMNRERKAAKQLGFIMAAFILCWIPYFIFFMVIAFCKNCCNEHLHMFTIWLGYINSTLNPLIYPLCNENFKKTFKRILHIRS
Sequence of Sodium-dependent dopamine transporter (Homo sapiens) (Q01959 whole entry): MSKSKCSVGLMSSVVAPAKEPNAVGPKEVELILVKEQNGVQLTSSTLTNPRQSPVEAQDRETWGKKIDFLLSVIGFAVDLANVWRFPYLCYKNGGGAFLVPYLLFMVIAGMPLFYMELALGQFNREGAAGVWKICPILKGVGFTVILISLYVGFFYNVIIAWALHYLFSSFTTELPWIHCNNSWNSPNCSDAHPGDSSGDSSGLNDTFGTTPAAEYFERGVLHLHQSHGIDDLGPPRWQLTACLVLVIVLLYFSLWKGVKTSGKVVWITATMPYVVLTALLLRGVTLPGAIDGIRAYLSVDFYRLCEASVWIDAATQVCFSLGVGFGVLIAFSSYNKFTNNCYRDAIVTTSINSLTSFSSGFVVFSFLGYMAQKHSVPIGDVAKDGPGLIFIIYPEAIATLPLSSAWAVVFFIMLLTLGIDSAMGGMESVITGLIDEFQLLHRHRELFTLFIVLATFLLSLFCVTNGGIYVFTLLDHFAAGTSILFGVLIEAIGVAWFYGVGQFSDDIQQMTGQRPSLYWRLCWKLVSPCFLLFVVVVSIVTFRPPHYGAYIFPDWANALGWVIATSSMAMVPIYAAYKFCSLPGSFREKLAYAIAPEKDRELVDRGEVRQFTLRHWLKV
Sequence of Kappa-type opioid receptor (Homo sapiens) (P41145 whole entry): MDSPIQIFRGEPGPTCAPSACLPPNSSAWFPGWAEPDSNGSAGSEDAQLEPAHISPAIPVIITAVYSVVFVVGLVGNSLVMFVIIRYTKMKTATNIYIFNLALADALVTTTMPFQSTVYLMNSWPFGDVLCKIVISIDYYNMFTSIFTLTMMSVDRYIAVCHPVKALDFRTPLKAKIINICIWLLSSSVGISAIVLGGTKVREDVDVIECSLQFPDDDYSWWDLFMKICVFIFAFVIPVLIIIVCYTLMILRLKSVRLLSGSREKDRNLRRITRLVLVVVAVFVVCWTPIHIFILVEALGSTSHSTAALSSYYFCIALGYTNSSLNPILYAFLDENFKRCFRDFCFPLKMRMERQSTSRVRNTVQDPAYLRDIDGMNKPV
Sequence of Muscarinic acetylcholine receptor M5 (Homo sapiens) (P08912 whole entry): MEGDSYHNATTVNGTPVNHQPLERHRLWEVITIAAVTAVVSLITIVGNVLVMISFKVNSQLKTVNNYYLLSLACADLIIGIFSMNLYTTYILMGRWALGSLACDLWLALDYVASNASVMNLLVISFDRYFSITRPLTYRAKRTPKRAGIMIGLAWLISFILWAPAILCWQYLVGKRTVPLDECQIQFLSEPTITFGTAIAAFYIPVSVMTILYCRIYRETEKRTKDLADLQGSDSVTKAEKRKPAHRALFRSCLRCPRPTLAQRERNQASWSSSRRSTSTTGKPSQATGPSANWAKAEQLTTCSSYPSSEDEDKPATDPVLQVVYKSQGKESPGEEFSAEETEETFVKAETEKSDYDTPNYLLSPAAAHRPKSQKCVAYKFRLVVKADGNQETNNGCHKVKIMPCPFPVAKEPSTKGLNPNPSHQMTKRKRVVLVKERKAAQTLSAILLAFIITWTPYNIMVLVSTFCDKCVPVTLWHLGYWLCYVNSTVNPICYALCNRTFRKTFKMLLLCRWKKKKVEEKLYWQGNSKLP
Sequence of 5-hydroxytryptamine receptor 1D (Homo sapiens) (P28221 whole entry): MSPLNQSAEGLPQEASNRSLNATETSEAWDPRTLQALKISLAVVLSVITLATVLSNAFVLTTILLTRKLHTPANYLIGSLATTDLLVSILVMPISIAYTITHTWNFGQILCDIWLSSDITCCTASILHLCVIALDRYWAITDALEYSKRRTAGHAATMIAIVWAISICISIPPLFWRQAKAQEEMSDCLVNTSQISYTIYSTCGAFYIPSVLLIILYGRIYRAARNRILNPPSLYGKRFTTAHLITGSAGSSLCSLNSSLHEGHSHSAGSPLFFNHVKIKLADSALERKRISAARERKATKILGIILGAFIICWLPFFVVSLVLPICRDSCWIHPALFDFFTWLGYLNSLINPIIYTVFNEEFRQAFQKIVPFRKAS
Sequence of 5-hydroxytryptamine receptor 2A (Homo sapiens) (P28223 whole entry): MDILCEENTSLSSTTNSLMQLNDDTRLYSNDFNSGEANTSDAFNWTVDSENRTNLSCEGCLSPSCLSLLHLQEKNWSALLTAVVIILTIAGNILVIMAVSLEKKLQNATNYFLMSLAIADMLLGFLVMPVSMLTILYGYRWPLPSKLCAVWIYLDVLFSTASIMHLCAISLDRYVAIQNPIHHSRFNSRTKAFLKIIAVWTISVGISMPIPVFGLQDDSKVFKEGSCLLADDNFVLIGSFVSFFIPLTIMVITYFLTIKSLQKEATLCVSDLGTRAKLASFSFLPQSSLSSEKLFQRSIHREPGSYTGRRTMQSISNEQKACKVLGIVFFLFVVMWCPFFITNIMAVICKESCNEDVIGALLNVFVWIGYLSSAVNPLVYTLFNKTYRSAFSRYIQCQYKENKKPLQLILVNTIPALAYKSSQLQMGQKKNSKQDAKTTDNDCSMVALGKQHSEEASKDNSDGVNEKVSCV
Sequence of D(1B) dopamine receptor (Homo sapiens) (P21918 whole entry): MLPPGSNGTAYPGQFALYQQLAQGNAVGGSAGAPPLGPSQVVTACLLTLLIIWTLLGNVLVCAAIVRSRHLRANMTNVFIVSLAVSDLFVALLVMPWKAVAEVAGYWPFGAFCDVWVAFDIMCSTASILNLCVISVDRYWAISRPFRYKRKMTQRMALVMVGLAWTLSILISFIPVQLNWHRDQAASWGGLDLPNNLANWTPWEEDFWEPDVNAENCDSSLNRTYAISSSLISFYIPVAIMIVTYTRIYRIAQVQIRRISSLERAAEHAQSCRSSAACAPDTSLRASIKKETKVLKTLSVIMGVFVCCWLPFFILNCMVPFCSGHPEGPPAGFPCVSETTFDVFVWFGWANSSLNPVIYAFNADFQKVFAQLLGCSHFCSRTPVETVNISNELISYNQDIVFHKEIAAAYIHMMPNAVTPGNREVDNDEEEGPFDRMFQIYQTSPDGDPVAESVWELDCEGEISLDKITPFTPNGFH

Compound | inhibition [1] [%] | inhibition [2] [%] | inhibition [3] [%] | residual activity [4] [%] | inhibition [5] [%] | inhibition [6] [%] | inhibition [7] [%] | inhibition [8] [%] | inhibition [9] [%] | inhibition [10] [%] | inhibition [11] [%] | inhibition [12] [%] | inhibition [13] [%] | inhibition [14] [%] | inhibition [15] [%] | inhibition [16] [%] | inhibition [17] [%] | inhibition [18] [%] | inhibition [19] [%]
COCCCS(=O)(=O)c1cc(C)c(-c2ccc(F)c3c2CC[C@H]3Oc2ccc3c(c2)OC[C@H]3CC(=O)O)c(C)c1 | -1.92 | -2.26 | 15.2 | 82 | 1.43 | -1.63 | 20.4 | -0.91 | 11.6 | 30.7 | 13.6 | 3.29 | 31.1 | 7.17 | -4.9 | -3.85 | 20.6 | -9.32 | 11.1
Cc1cc(OCCC(C)(C)O)cc(C)c1-c1ccc(F)c2c1CC[C@H]2Oc1ccc2c(c1)OC[C@H]2CC(=O)O | 10.3 | -0.3 | 25.4 | 103 | 26.8 | -4.38 | -6.42 | 13.1 | 20.2 | 66.7 | 15.1 | 13 | 22.6 | -3.94 | -7.32 | 6.65 | 8.37 | 0.05 | 9.38
